Values quoted from earlier work as cited in patent US6542858B1, “Pharmacokinetic-based drug design tool and method” (Lion Bioscience AG, priority 1998, dated 2003).

Experiments:
[1] = Plasma Kinetics; mass model parameter

k21 [1]: 0.670
in vivo biotransformation: no in vivo biotransformation
absorption (in vivo): poorly absorbed
Structure (SMILES): Nc1nc2c(ncn2COC(CO)CO)c(=O)[nH]1.[Na] [Gancyclovir, 9-(1,3-dihydroxy-2-propoxymethyl)guanine, monosodium salt]
